Values joined by “and” are separate entries in the source; they are usually repeats but may differ in a detail not shown here. Equal values may be shown once.
Tests used:
HEK 293T cells = experiment: Cytotoxicity, Alamar Blue colorimetric assay; format: cell-based
Experimental: Cytotoxicity measurements were performed using an Alamar Blue colorimetric assay. Each experiment was repeated at least three times. Cells were passaged using standard cell culture procedures. Cells were detached with trypsin and centrifuged (1000 rpm for 3 min). The supernatant was removed and the cells re-suspended in Dulbecco's Modified Eagle Medium (DMEM) at a concentration of 100,000 cells per mL. Cells were seeded at a concentration of 6,000 cells per well. For cytotoxicity measurements, […] of hydrogel made from short-peptide 4 (at 1% w/v and 2% w/v) and short peptides 11, 12, 13, and 16 (at 0.3, 0.6, and 1.0% w/v) were added in triplicate to a 96-well plate and allowed to set overnight. Surrounding wells were supplemented with water to ensure hydration of the gels. Gels were then incubated for 24 h with DMEM. Cells were seeded atop the hydrogels and incubated for 24 hours, before […] of Alamar Blue was added to the wells, followed by further incubation for 4 h. Control wells included cell-free gels, no hydrogels and a negative control of 15% (v/v) DMSO. The absorbances at 570 nm and 596 nm were recorded using a BioRad Benchmark plate reader.

Solubility in water = format: physicochemical; settings: even with vigorous heating
Experimental: Nitrobenzene-appended short peptide 4 was not soluble in water even with vigorous heating. Therefore, NaOH (2 equivalents) was added to deprotonate the carboxylic acid group at the C-terminus of short peptide 4, generating a sodium carboxylate salt with increased solubility in water. The yellow suspension of short peptide 4 was sonicated for 5 minutes after the addition of alkali, resulting is dissolution and formation of a yellow solution.

[1] = Hydrogel formation, vial inversion test (critical gel concentration); format: physicochemical; set-up: key: OG: opaque gel; P: precipitate; settings: solvent switch
Text: The simplest method to determine whether a suitable hydrogel has formed is to use the vial inversion test. Through visual inspection, a material can be categorised as a solution, viscous solution, partial gel, or solid-like gel. A stable hydrogel needs to be able to hold its weight and/or maintain its shape during this assessment.
The critical gel concentration (CGC) is defined as the minimum mass of a short peptide required to provide a self-supporting hydrogel per unit volume in the vial inversion test (measured as % w/v).
Pre-weighed samples of short peptide 4 were prepared in aluminium-covered glass vials and Milli-Q water and 2 equivalents of NaOH (1.0 M) were added to make up concentrations of 1% w/v. The resulting suspensions were vortexed for 5 minutes to provide clear yellow solutions with pH 11.
To create a high ionic strength environment, 1 equivalent of NaCl was added and the vial was left to stand without disturbance for 3 hours at room temperature. Meanwhile, as an attempt to form a hydrogel by lowering the pH, 2 equivalents of GdL were added to a high pH solution of 4 followed by gentle mixing. These vials were inverted and allowed to stand overnight to confirm the hydrogel formation.
The formation of hydrogel 4 via the solvent switch method was conducted by dissolving short peptide 4, in an aluminium covered glass vial, with either 50% methanol, ethanol, or dimethyl sulfoxide (DMSO). Respective amounts of Mili-Q water were added to make up concentrations of 1% w/v.
In addition, gelation time was defined as the time (hours) required for 1% w/v of short peptide 4 to form a hydrogel which can be turned upside down without collapsing.
Pre-weighed samples of short peptides 10a-17a, 18, and 19 were prepared in glass vials with 10 mm internal diameter, and Milli-Q water was added to make up concentrations of 1% w/v. The resulting suspensions of short peptides 13, 18, and 19 (as ammonium or guanidinium salts) were slowly warmed until all solid had completely dissolved. GdL (1.5 to 2.0 equivalents) was added to the suspension of short peptides 10a-17a, before heat was applied. To create a high ionic strength environment, 1-5 equivalents of NaCl was added to the viscous solution of 10a-17a to make the total volume up to 1 mL, followed by gentle mixing, and the vial was left to stand without disturbance for 3 hours at room temperature. Subsequently, these vials were inverted and allowed to stand overnight to confirm hydrogel formation.

[2] = Release of cationic short peptide from hydrogel (UV-Vis); format: physicochemical; settings: hydrogel 1% w/v, PBS, 37° C.
Experimental: Hydrogel 11 was made at 1% w/v with a final volume of 1 mL. The resulting hydrogel was left to stand overnight at room temperature. Phosphate buffer solution (PBS, 1 mL) was added gently from the side wall to avoid physical fractures. Subsequently, the vial was incubated at 37° C., where 1 mL of PBS was sampled at each time point and replaced with fresh PBS. Samples were subjected to 10× dilution before analysis using UV-Vis spectroscopy. This experiment was performed in triplicate.

S. aureus 38 = experiment: Microdilution MBC of released fibers versus free compound; format: cell-based, Staphylococcus aureus
Experimental: To confirm their antibacterial efficacy, the released fibers from day 1 and day 9 were subjected to a standard microdilution protocol.
To further investigate their antibacterial activity, the released fibers from hydrogel 11 were tested against S. aureus 38. The solutions sampled from day 1 and day 9 were adjusted to obtained final concentrations of […]. Then, 100 μL of these solutions were transferred to a 96 well plate. […] 100 μL of each of these peptide solutions was also transferred to a 96 well plate.
Subsequently, 100 μL of a bacteria solution, adjusted to 10^6 CFUs/mL was added to each well. Two controls were used: one containing 100 μL of LB and 100 μL of PBS, and the other containing 100 μL of bacteria solution and 100 μL of PBS. The plate was then incubated at 37° C. for 24 hours. The following day, 20 μL solution from each well was subjected to a serial dilution then transferred onto agar plates followed by incubation at 37° C. for another 24 hours. MBC value was determined as the lowest concentration that inhibited S. aureus growth on the agar plate.

| solubility in water (Solubility in water) | Remarks (gel state) ([1]; DMSO 5 % v/v) | Remarks (gel state) ([1]; DMSO 50 % v/v) | Remarks (gel state) ([1]; EtOH 5 % v/v) | Remarks (gel state) ([1]; EtOH 50 % v/v) | Remarks (gel state) ([1]; MeOH 5 % v/v) | Remarks (gel state) ([1]; MeOH 50 % v/v) | peptide released from hydrogel ([2]; 24 hours) | total peptide released ([2]; over 9 days) | SMILES | cell viability (HEK 293T cells; hydrogel 4 at 1% w/v, compared to the control) | cell viability (HEK 293T cells; hydrogel 4 at 2% w/v) | MBC (S. aureus 38; Staphylococcus aureus, 38, fibers in solution released from hydrogel 11, S. aureus, 24 hours, read-out: minimum bactericidal concentration (MBC)) | bacteria reduction (S. aureus 38; free compound (not hydrogel-formed) at 62 μM, S. aureus) |
| --- | --- | --- | --- | --- | --- | --- | --- | --- | --- | --- | --- | --- | --- |
| not soluble | P | OG | P | OG | P | OG | – | – | O=C(Nc1ccccc1C(=O)N[C@@H](Cc1ccccc1)C(=O)N[C@@H](Cc1ccccc1)C(=O)O)c1ccc([N+](=O)[O-])c(C(F)(F)F)c1 [Compound 4, (2-(4-Nitro-3-(trifluoromethyl)benzamido)benzoyl)-L-phenylalanyl-L-phenylalanine] | more than 90% | A similar result was observed | – | – |
| – | – | – | – | – | – | – | 0.15 mg/mL and 221 μM | ~14% | NCCCNC(=O)[C@H](Cc1ccccc1)NC(=O)c1ccccc1NC(=O)c1ccc2ccccc2c1 [Compound 11] | – | – | 62 µM | < 1 Log10 CFU/mL |

From patent publication US20230123497A1, “NOVEL ANTIBACTERIAL HYDROGELS” (NewSouth Innovations Pty Limited, priority 2020, published 2023)
